The text below walks through data of the supplement of paper PMC11061612.

Common to all, as to assay: Bliss excess, mean over the matrix (fraction); higher = more synergy
Assay [1] concerns 8305C (Thyroid Gland Carcinoma). The essentials: (§1)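 Cell lines grown in DMEM/F12 or RPMI with 10% FBS were plated in 1536-well plates and held 24 hours at 37°C, 5% CO2 before 72 hours of exposure to two-drug dose matrices, with DMSO typically at 0.2%. CellTiter-Glo 2.0 luminescence gave viability, which was converted to inhibition. Vehicle wells were set to 0 and blank wells to 1. Combination Emax is the second-highest inhibition in the matrix, and Bliss excess is the observed combination effect minus the expected EA + EB − EA·EB, where EA and EB are the single-agent effects.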

In assay [2] the test system is CAL-54 (Kidney Carcinoma). In a few lines: as §1
Assay [3] deals with CAPAN-1 (Pancreatic Carcinoma). The essentials: as §1
The subject of assay [4] is COLO-829 (Melanoma). The essentials:
as §1

Assay [5] concerns HARA (Squamous Cell Lung Carcinoma). In a few lines:
as §1

In assay [6] the test system is HDLM-2 (Hodgkin's Lymphoma). In a few lines:
as §1

The test system of assay [7] is HMV-II (Melanoma). In a few lines: as §1
Assay [8] concerns HO-1-u-1 (Oral Cavity Carcinoma). In a few lines: as §1
The subject of assay [9] is Hs-633T (Other Solid Carcinomas). The essentials:
as §1

Assay [10] has as its system K5 (Thyroid Gland Carcinoma). In a few lines:
as §1

In assay [11] the test system is KARPAS-231 (B-Cell Non-Hodgkin's Lymphoma). The essentials:
as §1

Assay [12] relates to MDA-MB-468 (Breast Carcinoma). The essentials: as §1
Assay [13] has as its system Mewo (Melanoma). In a few lines: as §1
The subject of assay [14] is NCI-H2461 (Mesothelioma). The essentials: as §1
Assay [15] has as its system NCI-H69 (Small Cell Lung Carcinoma). The essentials:
as §1

Assay [16] concerns RPMI-6666 (Non-Cancerous). The essentials: as §1
The test system of assay [17] is SK-OV-3 (Ovarian Carcinoma). In a few lines:
as §1

Assay [18] deals with SU-DHL-6 (B-Cell Non-Hodgkin's Lymphoma). The essentials:
as §1

Assay [19] concerns SUP-T1 (T-Lymphoblastic Leukemia). The essentials: as §1
Assay [20] has as its system SW1116 (Colorectal Carcinoma). The essentials:
as §1

Consider `CC1(C)CCC(CN2CCN(c3ccc(C(=O)NS(=O)(=O)c4ccc(NCC5CCOCC5)c([N+](=O)[O-])c4)c(Oc4cnc5[nH]ccc5c4)c3)CC2)=C(c2ccc(Cl)cc2)C1` [Venetoclax] + Cn1cnc2c(F)c(Nc3ccc(Br)cc3Cl)c(C(=O)NOCCO)cc21 [Selumetinib] (first compound max 1 µM, 7x7, partner max 3 µM), for which the Bliss excess in assay [1] is -0.0583; in assay [2], -0.0466; in [3], -0.057; in assay [4], -0.0392; in [5] it was -0.0084; in assay [6], -0.0245. For the same molecule, the Bliss excess is -0.0317 in [7]; -0.0352 in assay [8]; -0.0386 in assay [9]; -0.0402 in [10]; -0.177 in assay [11]; -0.0693 in assay [12]. For the same molecule, the Bliss excess in assay [13] is -0.0252; in assay [14], -0.0175; in assay [15], -0.105; in assay [16], 0.0306; in assay [17], -0.0624; in assay [18] it was 0.0155. Further, the values for the Bliss excess in assay [19] and in [20] were -0.0723 and -0.0736, respectively.
Regarding `Cc1c2c(nn1C)CSCc1cc(n(C)n1)CSc1cc(c3ccccc3c1)OCCCc1c(C(=O)O)n(C)c3c-2c(Cl)ccc13` [AZD5991] + CN(C)CCCOc1ccc(-c2ccc3ncc4c(c3c2)n(C2CCOCC2)c(=O)n4C)cn1 [AZD0156] (first compound max 1 µM, 7x7, partner max 1 µM), the Bliss excess in [1] was -0.0178; in [2] it was -0.0036; in assay [3], -0.0229; in assay [4], -0.0492; in assay [6], 0.0332; in assay [7] it was -0.033. In addition, the Bliss excess in [8] was 0.04; in [9], 0.0239; in assay [10] it was -0.0277; in assay [11] it was 0.041; in assay [12], -0.0544; in assay [13], -0.019. The Bliss excess was 0.0373 in assay [14]; -0.0614 in [15]; -0.0605 in assay [16]; 0.0106 in assay [17]; -0.0154 in assay [18]; -0.0007 in assay [19]. For the same molecule, the Bliss excess in assay [20] was -0.0032.
For the molecule `CN(CCO)CC[C@H](CSc1ccccc1)Nc1ccc(S(=O)(=O)NC(=O)c2ccc(N3CCC([C@@H](O)c4ccccc4-c4ccc(Cl)cc4)CC3)cc2)cc1S(=O)(=O)C(F)(F)F` [AZD4320] + CN(C)CCCOc1ccc(-c2ccc3ncc4c(c3c2)n(C2CCOCC2)c(=O)n4C)cn1 [AZD0156] (first compound max 1 µM, 7x7, partner max 1 µM), the Bliss excess in [1] was -0.0489; in assay [2] it was -0.0224; in assay [3], -0.0654; in [4], -0.0481; in assay [5], 0.0007; in assay [6], -0.0667. Also, the Bliss excess in assay [7] was -0.0267; in assay [8] it was 0.0032; in [9], -0.014; in assay [10], -0.0779; in [11], 0.0325; in assay [12], -0.127. The Bliss excess in assay [13] was -0.0466; in assay [14] it was -0.0479; in [15], -0.0465; in assay [16] it was -0.0597; in [17], -0.0364; in assay [19] it was -0.0333. Besides, the Bliss excess in assay [20] is -0.069.
Regarding `C[C@@H](c1ccc2nccn2c1)n1nnc2ncc(-c3cnn(C)c3)nc21` [Savolitinib] + CC1(C)CCC(CN2CCN(c3ccc(C(=O)NS(=O)(=O)c4ccc(NCC5CCOCC5)c([N+](=O)[O-])c4)c(Oc4cnc5[nH]ccc5c4)c3)CC2)=C(c2ccc(Cl)cc2)C1 [Venetoclax] (first compound max 1 µM, 7x7, partner max 1 µM), the Bliss excess was -0.115 in [1]; -0.102 in [2]; -0.0613 in assay [3]; -0.0411 in assay [4]; -0.031 in assay [5]; -0.0465 in assay [6]. The Bliss excess in assay [7] is -0.0621; in assay [8], -0.039; in assay [9], -0.0383; in assay [10], -0.0374; in assay [11] it was -0.0344; in assay [13], -0.0647. The Bliss excess in assay [14] was -0.0641; in assay [15], -0.0144; in [16], -0.0557; in [17] it was -0.0511; in assay [18] it was 0.0481; in [19], -0.0456. The Bliss excess in [20] is -0.0595.
In the case of `Cc1c2c(nn1C)CSCc1cc(n(C)n1)CSc1cc(c3ccccc3c1)OCCCc1c(C(=O)O)n(C)c3c-2c(Cl)ccc13` [AZD5991] + CCN(CCO)CCCOc1ccc2c(Nc3cc(CC(=O)Nc4cccc(F)c4)[nH]n3)ncnc2c1 [AZD2811] (first compound max 1 µM, 7x7, partner max 1 µM), the Bliss excess in assay [1] is -0.0204; in [2], -0.0018; in [3], -0.0303; in assay [4], -0.0319; in [5], 0.0761; in assay [6], -0.0117. The Bliss excess in [8] is 0.0569; in assay [9] it was -0.0106; in [10], -0.0431; in assay [11] it was -0.007; in [12] it was -0.0025; in assay [13], -0.0173. The Bliss excess in assay [14] is 0.0185; in [15], 0.0092; in assay [17], 0.0018; in assay [18] it was 0.0379; in [19], 0.0561; in assay [20], -0.003.
Take `COc1nnc2ccc(N3CCC(c4ccc(OCCN5CCN(C)C(=O)[C@H]5C)cc4)CC3)nn12` [AZD5153] + C[C@@H]1COCCN1C2=NC(=NC(=C2)C3(CC3)[S@](=N)(=O)C)C4=C5C=CNC5=NC=C4 [AZD6738] (first compound max 1 µM, 7x7, partner max 10 µM): the Bliss excess was -0.0088 in assay [1]; -0.0043 in [2]; -0.022 in assay [3]; -0.0138 in assay [4]; -0.0012 in assay [5]; -0.0567 in assay [6]. Further, the Bliss excess in assay [7] is 0.0169; in assay [8] it was -0.0146; in assay [9], 0.0037; in assay [10] it was -0.0057; in assay [11], -0.0609; in [13], -0.007. Further, the Bliss excess in assay [14] is -0.0571; in assay [15], 0.0358; in assay [16], -0.17; in [17] it was -0.0285; in [18] it was -0.0505; in [19] it was -0.0445. For the same molecule, the Bliss excess in [20] is -0.0165.
Consider `Cn1cnc2c(F)c(Nc3ccc(Br)cc3Cl)c(C(=O)NOCCO)cc21` [Selumetinib] + CCN(CCO)CCCOc1ccc2c(Nc3cc(CC(=O)Nc4cccc(F)c4)[nH]n3)ncnc2c1 [AZD2811] (first compound max 10 µM, 7x7, partner max 1 µM), for which the Bliss excess in [1] is -0.0075; in assay [2] it was -0.0129; in assay [3] it was -0.0209; in assay [4], -0.0341; in [5], 0.0522; in [6], -0.0267. The Bliss excess was -0.0477 in assay [7]; 0.0038 in assay [8]; 0.0395 in [9]; 0.0018 in assay [10]; -0.0043 in assay [11]; 0.0389 in assay [13]. Also, the Bliss excess in [14] is -0.0026; in assay [15] it was -0.056; in assay [16], 0.0696; in assay [17] it was -0.0798; in [18], 0.0923; in assay [19], 0.0328. Further, the Bliss excess in assay [20] was found to be 0.0021.
